From patent US10407381B2 (THE BOARD OF TRUSTEES OF THE UNIVERSITY OF ILLINOIS, priority 2015, dated 2019)
Read-outs that look alike come from different tables or passages of the source.

Experiments:
[1] = target: T1, human 5-HT2C-INI (Homo sapiens, UniProt P28335); assay: Calcium flux (FLIPR) assay, human 5-HT2C-INI stably expressed in HEK-293 (Flp-In-293) cells; conditions: human 5-HT2C-INI in HEK-293 cells, FLIPR; for EC50: NA = no activity at 10 μM; for Emax, % 5-HT 5-HT2C: normalized to 5-HT
T1 sequence (P28335 33-458): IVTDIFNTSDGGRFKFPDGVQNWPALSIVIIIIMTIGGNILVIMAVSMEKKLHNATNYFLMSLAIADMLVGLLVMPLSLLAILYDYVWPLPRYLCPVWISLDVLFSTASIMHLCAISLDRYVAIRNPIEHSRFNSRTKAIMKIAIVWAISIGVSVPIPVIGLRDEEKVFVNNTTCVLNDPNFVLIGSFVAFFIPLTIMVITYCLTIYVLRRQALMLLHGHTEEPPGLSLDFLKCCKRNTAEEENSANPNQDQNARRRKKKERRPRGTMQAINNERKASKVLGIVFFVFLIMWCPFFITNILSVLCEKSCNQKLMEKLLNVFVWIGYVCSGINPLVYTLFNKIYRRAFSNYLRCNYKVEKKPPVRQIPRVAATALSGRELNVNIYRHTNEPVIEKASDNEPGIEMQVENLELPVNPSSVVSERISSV

[2] = target: 5-HT2B (Homo sapiens, UniProt P41595); assay: Calcium flux (FLIPR) assay, human 5-HT2B stably expressed in HEK-293 (Flp-In-293) cells; conditions: for Emax, % 5-HT 5-HT2B: normalized to 5-HT
5-HT2B, sequence (P41595 whole entry): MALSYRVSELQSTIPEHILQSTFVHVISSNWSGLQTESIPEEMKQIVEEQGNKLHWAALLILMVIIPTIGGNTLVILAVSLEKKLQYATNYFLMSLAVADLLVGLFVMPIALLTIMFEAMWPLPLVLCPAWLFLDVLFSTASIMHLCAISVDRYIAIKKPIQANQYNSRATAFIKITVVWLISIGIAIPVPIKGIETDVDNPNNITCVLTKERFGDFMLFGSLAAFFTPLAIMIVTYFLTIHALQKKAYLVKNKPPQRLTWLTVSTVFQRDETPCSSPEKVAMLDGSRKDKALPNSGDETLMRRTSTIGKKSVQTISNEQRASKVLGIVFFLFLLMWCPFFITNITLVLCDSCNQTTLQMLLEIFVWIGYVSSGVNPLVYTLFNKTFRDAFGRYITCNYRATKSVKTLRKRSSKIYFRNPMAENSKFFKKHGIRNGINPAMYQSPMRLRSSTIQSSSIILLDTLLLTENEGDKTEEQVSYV

[3] = target: 5-HT2A (Homo sapiens, UniProt P28223); assay: Calcium flux (FLIPR) assay, human 5-HT2A stably expressed in HEK-293 (Flp-In-293) cells; conditions: for Emax, % 5-HT 5-HT2A: normalized to 5-HT
5-HT2A, sequence (P28223 whole entry): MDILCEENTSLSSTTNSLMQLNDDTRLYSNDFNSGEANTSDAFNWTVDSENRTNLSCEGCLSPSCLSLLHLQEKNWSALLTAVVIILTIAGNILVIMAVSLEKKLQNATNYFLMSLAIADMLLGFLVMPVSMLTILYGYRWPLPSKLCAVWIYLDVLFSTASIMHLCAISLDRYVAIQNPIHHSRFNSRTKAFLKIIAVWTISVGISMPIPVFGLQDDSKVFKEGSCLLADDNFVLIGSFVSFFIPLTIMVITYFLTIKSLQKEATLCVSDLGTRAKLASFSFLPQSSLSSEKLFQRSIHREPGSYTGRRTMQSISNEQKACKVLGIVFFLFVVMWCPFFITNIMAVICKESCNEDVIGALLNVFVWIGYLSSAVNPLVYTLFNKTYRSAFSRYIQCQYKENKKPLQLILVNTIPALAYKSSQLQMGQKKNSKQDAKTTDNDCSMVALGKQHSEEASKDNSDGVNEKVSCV

[4] = EC50, nM 5-HT2B, human 5-HT2B in HEK-293 cells, NA = no activity at 10 μM
[5] = EC50, nM 5-HT2A, human 5-HT2A in HEK-293 cells, FLIPR, NA = no activity at 10 μM
[6] = human 5-HT2A in HEK-293 cells, FLIPR
[7] = read-out: EC50, nM 5-HT2B, human 5-HT2B in HEK-293 cells, NA = no activity at 10 μM
[8] = read-out: EC50, nM 5-HT2A, human 5-HT2A in HEK-293 cells, FLIPR, NA = no activity at 10 μM

| Structure (SMILES) | EC50 ([1]; EC50, nM 5-HT2C) | Emax, % 5-HT 5-HT2C [1] | EC50 [2, 4] | Emax, % 5-HT 5-HT2B ([2]; human 5-HT2B in HEK-293 cells) | EC50 [3, 5] | Emax, % 5-HT 5-HT2A [3, 6] | EC50 [3] | EC50 ([1]; read-out: EC50, nM 5-HT2C) | EC50 [2, 7] | EC50 [3, 8] |
| --- | --- | --- | --- | --- | --- | --- | --- | --- | --- | --- |
| COc1ccc(Cl)c(F)c1[C@@H]1C[C@H]1CN (single isomer, unassigned) [(+)-Example 29, (+)-(2-(3-chloro-2-fluoro-6-methoxyphenyl)cyclopropyl)methanamine] | 13 nM | (92%) % 5-HT | 354 nM | (52%) % 5-HT | 212 nM | (85%) % 5-HT | – | – | – | – |
| COc1ccc(F)c(F)c1[C@@H]1C[C@H]1CN (single isomer, unassigned) [(+)-Example 45, (+)-(2-(2,3-Difluoro-6-methoxyphenyl)cyclopropyl)methanamine] | 9.5 nM | (108%) % 5-HT | 209 nM | (64%) % 5-HT | 437 nM | (79%) % 5-HT | – | – | – | – |
| COc1cc(F)c(Cl)cc1[C@@H]1C[C@H]1CN (single isomer, unassigned) [(−)-Example 1, (−)-(2-(5-Chloro-4-fluoro-2-methoxyphenyl)cyclopropyl)methanamine] | 16 nM | (99%) % 5-HT | 329 nM | (44%) % 5-HT | 235 nM | (88%) % 5-HT | – | – | – | – |
| COc1cc(F)c(F)cc1[C@@H]1C[C@H]1CN (single isomer, unassigned) [(−)-Example 40, (−)-(2-(4,5-Difluoro-2-methoxyphenyl)cyclopropyl)methanamine] | – | (104%) % 5-HT | – | (59%) % 5-HT | 511 nM | (76%) % 5-HT | – | – | – | – |
| CCOc1cc(F)c(Cl)cc1C1CC1CN (single isomer, unassigned; (+)) [(+)-Example 2, (+)-(2-(5-Chloro-2-ethoxy-4-fluorophenyl)cyclopropyl)methanamine] | 4.1 nM | (92%) % 5-HT | 286 nM | (82%) % 5-HT | 194 nM | (66%) % 5-HT | – | – | – | – |
| C#CCOc1cc(F)c(Cl)cc1C1CC1CN (single isomer, unassigned; (+)) [(+)-Example 6, (+)-(2-(5-Chloro-4-fluoro-2-(prop-2-yn-1-yloxy)phenyl)cyclopropyl)methanamine] | 67 nM | (80%) % 5-HT | 1010 nM | (30%) % 5-HT | 628 nM | (22%) % 5-HT | – | – | – | – |
| CCCOc1ccc(F)cc1C1CC1CN (single isomer, unassigned; (+)) [(+)-Example 7, (+)-(2-(5-Fluoro-2-propoxyphenyl)cyclopropyl)methanamine] | 11 nM | (88%) % 5-HT | 1990 nM | (33%) % 5-HT | 1020 nM | (15%) % 5-HT | – | – | – | – |
| CCOc1ccc(Cl)cc1C1CC1CN (single isomer, unassigned; (+)) [(+)-Example 11, (+)-(2-(5-Chloro-2-ethoxyphenyl)cyclopropyl)methanamine] | 13 nM | (91%) % 5-HT | 86 nM | (45%) % 5-HT | 1210 nM | (49%) % 5-HT | – | – | – | – |
| CC(C)Oc1ccc(Cl)cc1C1CC1CN (single isomer, unassigned; (+)) [(+)-Example 14, (+)-(2-(5-Chloro-2-isopropoxyphenyl)cyclopropyl)methanamine] | 91 nM | (86%) % 5-HT | 997 nM | (37%) % 5-HT | 4000 nM | (19%) % 5-HT | – | – | – | – |
| NCC1CC1c1cc(Cl)ccc1OCC(F)F (single isomer, unassigned; (+)) [(+)-Example 21, (+)-(2-(5-Chloro-2-(2,2-difluoroethoxy)phenyl)cyclopropyl)methanamine] | 91 nM | (81%) % 5-HT | 839 nM | (27%) % 5-HT | 1810 nM | (31%) % 5-HT | – | – | – | – |
| C=C(C)COc1ccc(Cl)cc1C1CC1CN (single isomer, unassigned; (+)) [(+)-Example 24, (+)-(2-(5-Chloro-2-((2-methylallyl)oxy)phenyl)cyclopropyl)methanamine] | 212 nM | (90%) % 5-HT | 422 nM | (32%) % 5-HT | – | (26%) % 5-HT | 903 nM | – | – | – |
| C#CCOc1ccc(Cl)cc1C1CC1CN (single isomer, unassigned; (+)) [(+)-Example 26, (+)-(2-(5-Chloro-2-(prop-2-yn-1-yloxy)phenyl)cyclopropyl)methanamine] | 63 nM | (65%) % 5-HT | 4600 nM | (29%) % 5-HT | 1010 nM | (21%) % 5-HT | – | – | – | – |
| CCOc1ccc(Cl)c(F)c1C1CC1CN (single isomer, unassigned; (+)) [(+)-Example 30, (+)-(2-(3-Chloro-6-ethoxy-2-fluorophenyl)cyclopropyl)methanamine] | 28 nM | (89%) % 5-HT | 900 nM | (36%) % 5-HT | 820 nM | (53%) % 5-HT | – | – | – | – |
| C=CCOc1ccc(Cl)c(F)c1C1CC1CN (single isomer, unassigned; (+)) [(+)-Example 32, (+)-(2-(6-(Allyloxy)-3-chloro-2-fluorophenyl)cyclopropyl)methanamine] | 116 nM | (90%) % 5-HT | 6980 nM | (69%) % 5-HT | – | (12%) % 5-HT | – | – | – | – |
| COc1cc(Cl)c(Cl)cc1C1CC1CN (single isomer, unassigned; (+)) [(+)-Example 33, (+)-(2-(4,5-Dichloro-2-methoxyphenyl)cyclopropyl)methanamine] | – | (95%) % 5-HT | – | – | – | (85%) % 5-HT | – | 9.7 nM | 31 nM | 21 nM |
| NCC1CC1c1cc(Cl)c(Cl)cc1OCCF (single isomer, unassigned; (+)) [(+)-Example 34, (+)-(2-(4,5-Dichloro-2-(2-fluoroethoxy)phenyl)cyclopropyl)methanamine] | 18 nM | (87%) % 5-HT | 15400 nM | (40%) % 5-HT | – | – | 92 nM | – | – | – |
| COc1ccc(Cl)c(Cl)c1C1CC1CN (single isomer, unassigned; (+)) [(+)-Example 36, (+)-(2-(2,3-Dichloro-6-methoxyphenyl)cyclopropyl)methanamine] | – | (98%) % 5-HT | – | (46%) % 5-HT | – | (76%) % 5-HT | – | 21 nM | 534 nM | 203 nM |
| CCOc1ccc(Cl)c(Cl)c1C1CC1CN (single isomer, unassigned; (+)) [(+)-Example 37, (+)-(2-(2,3-Dichloro-6-ethoxyphenyl)cyclopropyl)methanamine] | 91 nM | (101%) % 5-HT | 1310 nM | (61%) % 5-HT | 976 nM | (32%) % 5-HT | – | – | – | – |
